Data taken from US6090987A, “Metal-ligand complex catalyzed processes” (Union Carbide Chemicals & Plastics Technology Corporation, priority 1998, dated 2000).

Experiments:
[1] = Propylene hydroformylation rate and colour of (TPP)3 Rh(CO)H catalyst after thermal treatment; details: for hydroformylation rate: 100° C.
Description: TPP is triphenylphosphine. 15 grams of this bright yellow solution was charged to a Fisher Porter bottle under inert gas. To this solution was added 20 psi of butadiene with stirring. The pressure dropped as the butadiene dissolved into the solution. The reactor was repressured twice with butadiene (20 psig) and then the reaction was place under a total of 45 psig with nitrogen. The solution was heated to 120° C. for 15 minutes. […] At ambient temperature, the reaction was placed under vacuum for 4 hours to remove any excess butadiene.
Since the solvent has a very high boiling point, the concentration of rhodium was assumed to have remained unchanged while under vacuum. Indeed, no change in volume was detected visually while under vacuum. 15.0 milliliters of the 275 parts per million solution was charged to a 100 milliliter autoclave.
This example is a control for Example 23. 15 grams of the catalyst solution prepared in Example 23 was charged to a Fisher Porter bottle under inert gas. 45 psig of nitrogen was added to the reaction vessel, then the reaction was heated to 120° C. for 15 minutes. […] 15.0 milliliters of the 275 parts per million solution was charged to a 100 milliliter autoclave.
A catalyst solution was prepared by adding 113 milligrams of (TPP)3 Rh(CO)H to 40.4 grams Filmer IBT® available from Union Carbide Corporation, Danbury, Conn., resulting in a rhodium concentration of 312 parts per million. At this point, the rhodium complex was a suspended in the solvent. Approximately 20 grams of this solution of (TPP)3 Rh(CO)H in tetraglyme was charged to a Fisher Porter bottle under inert gas. To this solution was added 30 psi of butadiene with stirring. The pressure dropped to 20 psig as the butadiene dissolved into the solution. The reactor was repressured twice with butadiene (30 psig) and then the pressure was adjusted to 60 psig with nitrogen. The solution was placed into 140° C. oil bath, which caused the reaction to become homogeneous within a minute. The reaction was maintained at 140° C. for 50 minutes. […] The reaction vessel was removed from the oil bath and the butadiene was vented from the reactor while the reaction was hot. After gas evolution ceased, the reaction vessel was placed carefully placed under dynamic vacuum until gas evolution had ceased for 10 minutes. The reaction was then placed under a slight positive pressure of nitrogen. […] 15.0 milliliters of the 284 parts per million solution was charged to a 100 milliliter autoclave.
This example serves as a control for Example 25. Approximately 20 grams of the solution prepared in Example 25 was charged to a Fisher Porter bottle under inert gas. 60 psig of nitrogen was added to the reaction vessel, then the reaction was heated to 140° C. for approximately 110 minutes. […] This solution was place into and out of the oil bath at the same time as the solution in Example 25. After thermal treatment, 10 weight percent of triphenylphosphine was added to the reaction mixture. […] 15 milliliters of the 284 parts per million solution was charged to a 100 milliliter autoclave.

[2] = Long term catalyst stability, cycling between hydroformylation and simulated vaporizer conditions (Table 2, FIG. 2); details: for Percent Deactivation/Day: butadiene 2 psi
Description: A series of long term catalyst stability experiments were conducted in the glass reactors in a continuous propylene hydroformylation mode. The reactor consisted of a three ounce pressure bottle submersed in an oil bath with a glass front for viewing. In each example about 20 milliliters of a freshly prepared rhodium catalytic precursor solution was charged to the reactor with a syringe after purging the system with nitrogen. Each precursor solution contained 200 parts per million of rhodium (calculated as free rhodium) introduced as rhodium dicarbonyl acetylacetonate, Ligand F and tetraglyme. The amount of Ligand F (free) employed was 0.4 weight percent.
After closing the reactor, the system was again purged with nitrogen and the oil bath was heated to 80° C., in order to furnish the desired hydroformylation. The hydroformylation reaction in each experiment was conducted at a total gas pressure of about 165 psig, the target partial pressure pressures of hydrogen, carbon monoxide, and propylene being about 45 psia, 45 psia, and 5 psia, respectively, the remainder being nitrogen. The flows of the feed gases (carbon monoxide, hydrogen, propylene, and nitrogen) were controlled individually with mass flow meters. The feed gases were dispersed into the precursor solution via stainless steel 7-micron filters used as spargers. The unreacted portion of the feed gases stripped out the product aldehydes. Examples 14, 15 and 16 were conducted at 80° C. for 2 hours. The feed gases were then turned off and either pure nitrogen or an 88 mole percent nitrogen, 12 mole percent butadiene mixture was fed to the reactor (see Table 2). The pressure of the reactor was then let down to the appropriate pressure so that the target butadiene pressure in the reactor could be achieved. The oil bath temperature was then ramped to 125° C. over a 5 minute period. The bath remained at 125° C. for 10 minutes. The bath was then cooled to 80° C. over a 6 minute period. […]

C=CC=C [Butadiene, 1,3-butadiene]
color change of catalyst solution ([1]; 120° C. for 15 minutes under butadiene/nitrogen): No color change was observed | color of catalyst solution ([1]; 140° C. for 50 minutes under butadiene/nitrogen): maintained a bright yellow color | color change of catalyst solution ([1]; 140° C. for further 60 minutes, butadiene removed): no observable color change | hydroformylation rate ([1]; after 120° C. for 15 minutes with butadiene, 275 ppm Rh, 9.1 wt% triphenylphosphine, 115 psig): 1.4 gmol/L-h | hydroformylation rate ([1]; after 140° C. for 50 minutes with butadiene and 60 minutes after venting, 284 ppm Rh, 95 psig): 1.0 gmol/L-h | influence on the catalyst (FIG. 2) ([2]; cycling between 80° C. hydroformylation and 125° C. simulated vaporizer): stabilizing influence | Percent Deactivation/Day ([2]; separation temperature 125° C., butadiene/Rh molar ratio 45): 5 Percent/Day | Percent Deactivation/Day ([2]; separation temperature 135° C., butadiene/Rh molar ratio 55): 5 Percent/Day
